Test results from ChEMBL document CHEMBL1128921, “Mechanism-based inactivation of serine proteases by dichlorocyclopropane fused lactone derivatives” (Bioorg Med Chem Lett, 1996).

Key:
[1] = molecular target: Chymotrypsinogen A (Bos taurus) (UniProt P00766); assay: Compound was evaluated for inhibitory activity against alpha-chymotrypsin at a concentration of 1.95 x 10e-2; NI = No inactivation
[2] = molecular target: T1, Chymotrypsin-like elastase family member 2A (Sus scrofa) (UniProt P08419); assay: Compound was evaluated for inhibitory activity against PP elastase at a concentration of 1.95 x 10e-2; NI = No inactivation
T1 sequence (whole entry): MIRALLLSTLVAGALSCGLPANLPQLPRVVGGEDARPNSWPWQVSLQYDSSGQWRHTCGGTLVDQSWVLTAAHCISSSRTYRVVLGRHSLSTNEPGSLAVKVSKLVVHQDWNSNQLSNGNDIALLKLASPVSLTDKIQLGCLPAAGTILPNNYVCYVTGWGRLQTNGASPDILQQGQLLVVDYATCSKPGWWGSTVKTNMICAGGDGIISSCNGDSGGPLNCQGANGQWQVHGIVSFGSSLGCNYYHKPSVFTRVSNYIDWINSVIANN

[3] = molecular target: Chymotrypsinogen A (Bos taurus) (UniProt P00766); assay: Compound was evaluated for inhibitory activity against alpha-chymotrypsin at a concentration of 6.0 x 10e-3
[4] = molecular target: Chymotrypsinogen A (Bos taurus) (UniProt P00766); assay: Compound was evaluated for inhibitory activity against alpha-chymotrypsin at a concentration of 7.5 x 10e-6
[5] = molecular target: T1, Chymotrypsin-like elastase family member 2A (Sus scrofa); assay: Compound was evaluated for inhibitory activity against PP elastase at a concentration of 2.0 x 10e-5; NI = No inactivation
[6] = molecular target: T1, Chymotrypsin-like elastase family member 2A (Sus scrofa); assay: Compound was evaluated for inhibitory activity against PP elastase at a concentration of 1.2 x 10e-3; NI = No inactivation
[7] = molecular target: Chymotrypsinogen A (Bos taurus) (UniProt P00766); assay: Compound was evaluated for inhibitory activity against alpha-chymotrypsin at a concentration of 5.0 x 10e-4
[8] = molecular target: Chymotrypsinogen A (Bos taurus) (UniProt P00766); assay: Compound was evaluated for inhibitory activity against alpha-chymotrypsin at a concentration of 5.0 x 10e-4; NI = No inactivation

O=C1CCC2C(O1)C2(Cl)Cl (stereo not drawn)
K obs / 1 [1]: No inactivation
K obs / 1 [2]: No inactivation

O=C(O)CCC(=O)N[C@@H](Cc1ccccc1)C(=O)OC1CC1(Cl)Cl (stereo partly drawn)
K obs / 1 [3]: 0.054 M⁻¹ s⁻¹

O=C1OC2C(CC1Cc1ccccc1)C2(Cl)Cl (stereo not drawn)
K obs / 1 [4]: 54 M⁻¹ s⁻¹
K obs / 1 [5]: No inactivation

C[C@H](NC(=O)CCC(=O)O)C(=O)N[C@@H](C)C(=O)N[C@@H](Cc1ccccc1)C(=O)OC1CC1(Cl)Cl (stereo partly drawn)
K obs / 1 [6]: No inactivation
K obs / 1 [7]: 0.337 M⁻¹ s⁻¹

O=C1OCCCC1Cc1ccccc1 (stereo not drawn)
K obs / 1 [8]: No inactivation
